From patent US10584115B2, “Substituted pyridine and pyrazine BMI-1 inhibitors” (PTC Therapeutics, Inc., priority 2013, dated 2020)

tested on: Bmi-1 protein; test: Sandwich ELISA Assay (Bmi-1 protein level in HT-1080 cells after compound treatment); format: cell-based; settings: Table 1, Bmi-1 sandwich ELISA, read-out: ELISA EC50 value for Bmi-1 protein
In short: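 HT-1080 cells exposed to compounds for 40–48 h at 37 °C (0.5% DMSO final), then lysed. Bmi-1 in lysates measured by sandwich ELISA (mouse monoclonal capture, rabbit anti-Bmi-1 detection, HRP anti-rabbit, TMB), read at OD450 with OD570 reference against a recombinant Bmi-1 standard curve (0–8000 pg/mL).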

EC50 [µM] | SMILES
0.1 to 3 | FC(F)(F)c1ccc(Nc2cncc(-n3c(C(F)(F)F)nc4ncccc43)n2)cc1 [compound 123, 6-[2-(trifluoromethyl)-1H-imidazo[4,5-b]pyridin-1-yl]-N-[4-(trifluoromethyl)phenyl]pyrazin-2-amine]
0.1 to 3 | CCc1nc(C)c(-c2cncc(Nc3ccc(C(F)(F)F)cc3)n2)n1Cc1ccccc1 [compound 126]
0.01 to 0.1 | COC(=O)c1ccc(Nc2cncc(-n3c(C)nc4ccccc43)n2)cc1 [compound 133, methyl 4-{[6-(2-methyl-1H-benzimidazol-1-yl)pyrazin-2-yl]amino}benzoate]
0.1 to 3 | FC(F)(F)c1ccc(Nc2cncc(-n3c(Cl)nc4ccccc43)n2)cc1 [compound 134, 6-(2-chloro-1H-benzimidazol-1-yl)-N-[4-(trifluoromethyl)phenyl]pyrazin-2-amine]
0.1 to 3 | FC(F)(F)c1ccc(Nc2cccc(-n3c(C(F)(F)F)nc4ncccc43)n2)cc1 [compound 137, 6-[2-(trifluoromethyl)-1H-imidazo[4,5-b]pyridin-1-yl]-N-[4-(trifluoromethyl)phenyl]pyridin-2-amine]
0.01 to 0.1 | CCNc1nc2ccccc2n1-c1cncc(Nc2ccc(C(F)(F)F)cc2)n1 [compound 138, N-ethyl-1-(6-{[4-(trifluoromethyl)phenyl]amino}pyrazin-2-yl)-1H-benzimidazol-2-amine]
0.01 to 0.1 | Cc1nc2ncccc2n1-c1cccc(Nc2ccc(C(F)(F)F)cc2)n1 [compound 139, 6-(2-methyl-1H-imidazo[4,5-b]pyridin-1-yl)-N-[4-(trifluoromethyl)phenyl]pyridin-2-amine]
0.01 to 0.1 | CCc1nc2ncccc2n1-c1cccc(Nc2ccc(C(F)(F)F)cc2)n1 [compound 140, 6-(2-ethyl-1H-imidazo[4,5-b]pyridin-1-yl)-N-[4-(trifluoromethyl)phenyl]pyridin-2-amine]
0.1 to 3 | FC(F)(F)Oc1ccc(Nc2cncc(-c3c(C(F)(F)F)nc4cnccn34)n2)cc1 [compound 141, N-[4-(trifluoromethoxy)phenyl]-6-[2-(trifluoromethyl)imidazo[1,2-a]pyrazin-3-yl]pyrazin-2-amine]
0.01 to 0.1 | FC(F)Oc1ccc(Nc2cncc(-c3c(C(F)(F)F)nc4cnccn34)n2)cc1 [compound 142, N-[4-(difluoromethoxy)phenyl]-6-[2-(trifluoromethyl)imidazo[1,2-a]pyrazin-3-yl]pyrazin-2-amine]
< 0.001 | Cc1nn(C)c(C)c1-c1cncc(Nc2ccc(OC(F)F)cc2)n1 [compound 143, N-[4-(difluoromethoxy)phenyl]-6-(1,3,5-trimethyl-1H-pyrazol-4-yl)pyrazin-2-amine]
0.1 to 3 | Cc1nn(C)c(C)c1-c1cccc(Nc2ccc(OC(F)(F)F)cc2)n1 [compound 144, N-[4-(trifluoromethoxy)phenyl]-6-(1,3,5-trimethyl-1H-pyrazol-4-yl)pyridin-2-amine]
0.01 to 0.1 | CC(O)c1nc2ccccc2n1-c1cncc(Nc2ccc(C(F)(F)F)cc2)n1 (stereo not drawn) [compound 150, 1-[1-(6-{[4-(trifluoromethyl)phenyl]amino}pyrazin-2-yl)-1H-benzimidazol-2-yl]ethanol]
0.001 to 0.01 | OCc1nc2ccccn2c1-c1cncc(Nc2ccc(C(F)(F)F)cc2)n1 [compound 151, [3-(6-{[4-(trifluoromethyl)phenyl]amino}pyrazin-2-yl)imidazo[1,2-a]pyridin-2-yl]methanol]
0.01 to 0.1 | Cc1nc2ccccc2n1-c1cncc(Nc2ccc(CO)cc2)n1 [compound 152, (4-{[6-(2-methyl-1H-benzimidazol-1-yl)pyrazin-2-yl]amino}phenyl)methanol]
0.001 to 0.01 | CC(=O)c1ccc(Nc2cncc(-n3c(C)nc4ccccc43)n2)cc1 [compound 153, 1-(4-{[6-(2-methyl-1H-benzimidazol-1-yl)pyrazin-2-yl]amino}phenyl)ethanone]
0.01 to 0.1 | Cc1nc2ccccc2n1-c1cncc(Nc2ccc(C(C)O)cc2)n1 (stereo not drawn) [compound 155, 1-(4-{[6-(2-methyl-1H-benzimidazol-1-yl)pyrazin-2-yl]amino}phenyl)ethanol]
0.001 to 0.01 | C/C(=N\O)c1ccc(Nc2cncc(-n3c(C)nc4ccccc43)n2)cc1 [compound 156, N-{4-[(1E)-N-hydroxyethanimidoyl]phenyl}-6-(2-methyl-1H-benzimidazol-1-yl)pyrazin-2-amine]
0.1 to 3 | N#Cc1nc2ccccc2n1-c1cncc(Nc2ccc(C(F)(F)F)cc2)n1 [compound 157, 1-(6-{[4-(trifluoromethyl)phenyl]amino}pyrazin-2-yl)-1H-benzimidazole-2-carbonitrile]
0.01 to 0.1 | O=[N+]([O-])c1cc(Nc2ccc(C(F)(F)F)cc2)nc(-c2c(C(F)(F)F)nc3ccccn23)c1 [compound 158, 4-nitro-6-[2-(trifluoromethyl)imidazo[1,2-a]pyridin-3-yl]-N-[4-(trifluoromethyl)phenyl]pyridin-2-amine]
0.001 to 0.01 | Nc1cc(Nc2ccc(C(F)(F)F)cc2)nc(-c2c(C(F)(F)F)nc3ccccn23)c1 [compound 159, 6-[2-(trifluoromethyl)imidazo[1,2-a]pyridin-3-yl]-N^2-[4-(trifluoromethyl)phenyl]pyridine-2,4-diamine]
0.01 to 0.1 | OCCNc1cc(Nc2ccc(C(F)(F)F)cc2)nc(-c2c(C(F)(F)F)nc3ccccn23)c1 [compound 160, 2-[(2-[2-(trifluoromethyl)imidazo[1,2-a]pyridin-3-yl]-6-{[4-(trifluoromethyl)phenyl]amino}pyridin-4-yl)amino]ethanol]
0.01 to 0.1 | COCCNc1cc(Nc2ccc(C(F)(F)F)cc2)nc(-c2c(C(F)(F)F)nc3ccccn23)c1 [compound 161, N^4-(2-methoxyethyl)-6-[2-(trifluoromethyl)imidazo[1,2-a]pyridin-3-yl]-N^2-[4-(trifluoromethyl)phenyl]pyridine-2,4-diamine]
0.1 to 3 | Cc1cc2ccccc2n1-c1cncc(Nc2ccc(C(F)(F)F)cc2)n1 [compound 162]
0.1 to 3 | Cc1cc2ccccc2n1-c1cncc(Nc2ccc(OC(F)F)cc2)n1 [compound 163, N-[4-(difluoromethoxy)phenyl]-6-(2-methyl-1H-indol-1-yl)pyrazin-2-amine]
0.01 to 0.1 | COc1ccc(Nc2cncc(-n3c(C)cc4ccccc43)n2)cc1 [compound 164, N-(4-methoxyphenyl)-6-(2-methyl-1H-indol-1-yl)pyrazin-2-amine]
0.1 to 3 | Cc1nc2cnccc2n1-c1cncc(Nc2ccc(C(F)(F)F)cc2)n1 [compound 166, 6-(2-methyl-1H-imidazo[4,5-c]pyridin-1-yl)-N-[4-(trifluoromethyl)phenyl]pyrazin-2-amine]
0.1 to 3 | CSc1nc2ccccc2n1-c1cncc(Nc2ccc(OC(F)(F)F)cc2)n1 [compound 167, 6-[2-(methylsulfanyl)-1H-benzimidazol-1-yl]-N-[4-(trifluoromethoxy)phenyl]pyrazin-2-amine]
0.01 to 0.1 | Cc1ccc(Nc2cncc(-c3c(C(F)(F)F)nc4cnccn34)n2)cc1 [compound 168, N-(4-methylphenyl)-6-[2-(trifluoromethyl)imidazo[1,2-a]pyrazin-3-yl]pyrazin-2-amine]
0.01 to 0.1 | O=[N+]([O-])c1cc(Nc2ccc(OC(F)F)cc2)nc(-c2c(C(F)(F)F)nc3ccccn23)c1 [compound 169, N-[4-(difluoromethoxy)phenyl]-4-nitro-6-[2-(trifluoromethyl)imidazo[1,2-a]pyridin-3-yl]pyridin-2-amine]
